Results published in ChEMBL document CHEMBL4800728, “Data for DCP probe JNJ-54119936” (2021).

Experiments:
[1] = biological target: Alpha-1D adrenergic receptor (Homo sapiens) (UniProt P25100); settings: Compound concentration 10.0 uM
[2] = biological target: Mu-type opioid receptor (Homo sapiens) (UniProt P35372); settings: Compound concentration 10.0 uM
[3] = biological target: Delta-type opioid receptor (Homo sapiens) (UniProt P41143); settings: Compound concentration 10.0 uM
[4] = biological target: GABA-A receptor; anion channel (Rattus norvegicus) (UniProt O09028+P15431+P18506+P18508+P19969+P20236+P23574+P23576+P28471+P28473+P30191+P62813+P63079+P63138+Q91ZM7+Q9ES14); settings: Compound concentration 10.0 uM
[5] = biological target: 5-hydroxytryptamine receptor 7 (Homo sapiens) (UniProt P34969); settings: Compound concentration 10.0 uM
[6] = biological target: T1, Peroxisome proliferator-activated receptor delta (Homo sapiens) (UniProt Q03181); assay: (§1) PPARdelta In-house nuclear receptor screen; settings: Compound concentration 3.0 uM
T1 sequence (whole entry): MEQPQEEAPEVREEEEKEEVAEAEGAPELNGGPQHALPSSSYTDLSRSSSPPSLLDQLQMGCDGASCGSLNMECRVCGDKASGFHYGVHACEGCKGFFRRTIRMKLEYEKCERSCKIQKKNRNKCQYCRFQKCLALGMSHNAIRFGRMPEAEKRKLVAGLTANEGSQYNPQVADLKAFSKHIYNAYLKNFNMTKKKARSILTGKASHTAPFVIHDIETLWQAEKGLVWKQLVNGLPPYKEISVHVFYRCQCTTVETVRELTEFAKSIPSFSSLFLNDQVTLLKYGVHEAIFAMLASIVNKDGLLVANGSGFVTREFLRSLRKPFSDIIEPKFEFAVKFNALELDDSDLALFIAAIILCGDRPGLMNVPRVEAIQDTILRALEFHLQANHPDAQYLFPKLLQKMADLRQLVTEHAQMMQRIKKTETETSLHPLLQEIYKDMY

[7] = biological target: Peroxisome proliferator-activated receptor delta (Homo sapiens, UniProt Q03181); assay: as §1
[8] = biological target: T2, Oxysterols receptor LXR-beta (Homo sapiens) (UniProt P55055); assay: LXRbeta Indigo Bioscience nuclear receptor screen
T2 sequence (whole entry): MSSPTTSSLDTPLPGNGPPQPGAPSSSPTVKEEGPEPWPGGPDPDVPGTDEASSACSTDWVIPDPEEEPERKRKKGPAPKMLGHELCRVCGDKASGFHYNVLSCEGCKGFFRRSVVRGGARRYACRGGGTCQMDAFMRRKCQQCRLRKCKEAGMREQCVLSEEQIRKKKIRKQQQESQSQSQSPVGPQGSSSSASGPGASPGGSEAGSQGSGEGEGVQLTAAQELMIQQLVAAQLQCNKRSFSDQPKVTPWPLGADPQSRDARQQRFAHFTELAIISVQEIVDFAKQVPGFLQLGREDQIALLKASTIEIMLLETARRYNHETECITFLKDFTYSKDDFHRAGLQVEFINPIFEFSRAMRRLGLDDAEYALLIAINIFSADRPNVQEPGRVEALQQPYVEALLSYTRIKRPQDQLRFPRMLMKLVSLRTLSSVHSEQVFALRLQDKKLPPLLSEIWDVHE

[9] = biological target: Receptor-type tyrosine-protein kinase FLT3 (Homo sapiens) (UniProt P36888); assay: Flt3 Invitrogen kinase panel; settings: Compound concentration 10.0 uM
[10] = biological target: C-C chemokine receptor type 1 (Homo sapiens) (UniProt P32246); assay: CCR1 (h) CEREP screen; settings: Compound concentration 1.0 uM
[11] = biological target: Neuromedin-K receptor (Homo sapiens) (UniProt P29371); assay: NK3 (h) CEREP screen
[12] = biological target: Type-1 angiotensin II receptor (Homo sapiens) (UniProt P30556); assay: AT1 (h) CEREP screen; settings: Compound concentration 10.0 uM
[13] = biological target: Calcium/calmodulin-dependent protein kinase type 1D (Homo sapiens) (UniProt Q8IU85); assay: CaMKIdelta Invitrogen kinase panel; settings: Compound concentration 10.0 uM
[14] = biological target: RAC-alpha serine/threonine-protein kinase (Homo sapiens) (UniProt P31749); assay: PKBalpha Invitrogen kinase panel; settings: Compound concentration 10.0 uM
[15] = biological target: Casein kinase II subunit alpha (Homo sapiens) (UniProt P68400); assay: CK2alpha1 Invitrogen kinase panel; settings: Compound concentration 10.0 uM
[16] = biological target: 5-hydroxytryptamine receptor 3A (Homo sapiens) (UniProt P46098); settings: Compound concentration 10.0 uM
[17] = biological target: Protein kinase C alpha type (Homo sapiens) (UniProt P17252); assay: PKCalpha Invitrogen kinase panel; settings: Compound concentration 10.0 uM
[18] = biological target: T3, Muscarinic acetylcholine receptor M1 (Homo sapiens) (UniProt P11229); settings: Compound concentration 10.0 uM
T3 sequence (whole entry): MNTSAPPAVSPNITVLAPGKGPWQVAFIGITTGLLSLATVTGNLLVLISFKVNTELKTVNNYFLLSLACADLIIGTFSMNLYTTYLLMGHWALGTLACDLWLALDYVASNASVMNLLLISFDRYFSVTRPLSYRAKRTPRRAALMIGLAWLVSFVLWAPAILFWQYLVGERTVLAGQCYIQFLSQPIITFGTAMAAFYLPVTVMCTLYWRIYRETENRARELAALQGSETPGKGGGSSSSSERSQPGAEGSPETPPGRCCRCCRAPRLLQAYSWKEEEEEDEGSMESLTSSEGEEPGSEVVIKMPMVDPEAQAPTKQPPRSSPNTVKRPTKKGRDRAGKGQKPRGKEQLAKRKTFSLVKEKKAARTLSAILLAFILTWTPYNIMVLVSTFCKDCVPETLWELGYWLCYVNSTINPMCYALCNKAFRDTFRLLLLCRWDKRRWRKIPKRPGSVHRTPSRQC

[19] = biological target: Oxysterols receptor LXR-alpha (Homo sapiens) (UniProt Q13133); assay: LXRalpha Indigo Bioscience nuclear receptor screen; settings: Compound concentration 0.3 uM
[20] = biological target: Oxysterols receptor LXR-alpha (Homo sapiens, UniProt Q13133); assay: (§2) LXRalpha In-house nuclear receptor screen
[21] = biological target: Oxysterols receptor LXR-alpha (Homo sapiens) (UniProt Q13133); assay: as §2; settings: Compound concentration 3.0 uM
[22] = biological target: Sodium-dependent noradrenaline transporter (Homo sapiens) (UniProt P23975); settings: Compound concentration 10.0 uM
[23] = biological target: Mitogen-activated protein kinase 3 (Homo sapiens) (UniProt P27361); assay: ERK1 Invitrogen kinase panel; settings: Compound concentration 10.0 uM
[24] = biological target: D(1A) dopamine receptor (Homo sapiens) (UniProt P21728); settings: Compound concentration 10.0 uM
[25] = biological target: Calcium/calmodulin-dependent protein kinase type II subunit alpha (Homo sapiens) (UniProt Q9UQM7); assay: CaMKIIalpha Invitrogen kinase panel; settings: Compound concentration 10.0 uM
[26] = biological target: Muscarinic acetylcholine receptor M3 (Homo sapiens) (UniProt P20309); assay: M3 (h) CEREP screen
[27] = biological target: Serine/threonine-protein kinase Nek2 (Homo sapiens) (UniProt P51955); assay: NEK2 Invitrogen kinase panel; settings: Compound concentration 10.0 uM
[28] = biological target: Beta-1 adrenergic receptor (Homo sapiens) (UniProt P08588); settings: Compound concentration 10.0 uM

Sequence of Muscarinic acetylcholine receptor M3 (Homo sapiens) (P20309 whole entry, looked up): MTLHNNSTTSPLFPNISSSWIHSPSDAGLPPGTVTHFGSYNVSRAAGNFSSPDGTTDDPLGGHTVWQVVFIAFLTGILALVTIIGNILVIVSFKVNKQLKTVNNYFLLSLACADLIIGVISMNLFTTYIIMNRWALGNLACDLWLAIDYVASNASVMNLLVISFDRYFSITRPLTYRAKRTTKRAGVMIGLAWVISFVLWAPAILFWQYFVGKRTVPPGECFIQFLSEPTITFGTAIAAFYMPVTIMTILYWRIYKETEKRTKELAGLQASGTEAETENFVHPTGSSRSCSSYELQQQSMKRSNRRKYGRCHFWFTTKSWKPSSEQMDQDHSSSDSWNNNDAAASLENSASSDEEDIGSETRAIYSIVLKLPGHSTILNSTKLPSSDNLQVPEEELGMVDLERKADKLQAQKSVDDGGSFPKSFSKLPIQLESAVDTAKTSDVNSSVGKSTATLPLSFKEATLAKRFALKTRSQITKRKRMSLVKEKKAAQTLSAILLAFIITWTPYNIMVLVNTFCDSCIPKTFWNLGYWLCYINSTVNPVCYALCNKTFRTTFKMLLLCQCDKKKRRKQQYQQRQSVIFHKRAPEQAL
Sequence of Oxysterols receptor LXR-alpha (Homo sapiens) (Q13133 whole entry): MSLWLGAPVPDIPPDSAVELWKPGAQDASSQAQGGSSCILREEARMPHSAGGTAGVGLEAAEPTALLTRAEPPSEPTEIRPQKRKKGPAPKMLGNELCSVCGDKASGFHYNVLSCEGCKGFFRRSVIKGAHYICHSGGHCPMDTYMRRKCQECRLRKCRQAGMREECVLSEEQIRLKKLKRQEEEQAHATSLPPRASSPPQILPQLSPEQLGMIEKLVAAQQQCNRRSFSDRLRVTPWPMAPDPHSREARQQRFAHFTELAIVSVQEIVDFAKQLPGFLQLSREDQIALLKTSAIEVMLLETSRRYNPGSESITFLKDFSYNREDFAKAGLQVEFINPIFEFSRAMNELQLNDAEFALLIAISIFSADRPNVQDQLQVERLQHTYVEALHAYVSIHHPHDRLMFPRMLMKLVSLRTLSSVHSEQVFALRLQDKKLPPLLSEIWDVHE
Sequence of Neuromedin-K receptor (Homo sapiens) (P29371 whole entry): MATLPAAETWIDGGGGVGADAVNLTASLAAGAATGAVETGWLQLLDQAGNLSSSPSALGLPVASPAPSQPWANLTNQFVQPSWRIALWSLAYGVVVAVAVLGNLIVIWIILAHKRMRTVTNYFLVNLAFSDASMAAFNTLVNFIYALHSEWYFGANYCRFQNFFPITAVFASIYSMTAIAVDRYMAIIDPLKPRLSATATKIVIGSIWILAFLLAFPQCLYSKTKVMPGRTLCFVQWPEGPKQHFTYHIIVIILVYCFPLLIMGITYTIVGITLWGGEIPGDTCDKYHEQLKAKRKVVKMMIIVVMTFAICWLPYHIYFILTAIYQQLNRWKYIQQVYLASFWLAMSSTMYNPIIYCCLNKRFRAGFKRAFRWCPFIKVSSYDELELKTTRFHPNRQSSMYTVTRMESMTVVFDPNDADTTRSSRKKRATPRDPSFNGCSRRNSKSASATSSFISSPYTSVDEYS
Sequence of 5-hydroxytryptamine receptor 3A (Homo sapiens) (P46098 whole entry): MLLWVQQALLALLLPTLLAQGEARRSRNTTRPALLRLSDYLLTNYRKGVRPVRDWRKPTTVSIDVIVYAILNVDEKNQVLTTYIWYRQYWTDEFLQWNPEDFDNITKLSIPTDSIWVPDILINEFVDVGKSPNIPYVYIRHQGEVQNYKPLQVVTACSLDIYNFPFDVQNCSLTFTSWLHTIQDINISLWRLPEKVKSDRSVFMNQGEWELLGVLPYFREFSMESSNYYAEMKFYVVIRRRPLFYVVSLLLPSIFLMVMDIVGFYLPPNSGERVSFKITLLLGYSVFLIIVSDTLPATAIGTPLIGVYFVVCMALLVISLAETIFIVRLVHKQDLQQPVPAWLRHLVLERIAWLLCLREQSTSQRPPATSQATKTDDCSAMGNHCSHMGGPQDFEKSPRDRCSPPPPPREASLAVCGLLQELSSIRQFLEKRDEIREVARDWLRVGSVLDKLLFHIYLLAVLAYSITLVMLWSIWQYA
Sequence of Receptor-type tyrosine-protein kinase FLT3 (Homo sapiens) (P36888 whole entry): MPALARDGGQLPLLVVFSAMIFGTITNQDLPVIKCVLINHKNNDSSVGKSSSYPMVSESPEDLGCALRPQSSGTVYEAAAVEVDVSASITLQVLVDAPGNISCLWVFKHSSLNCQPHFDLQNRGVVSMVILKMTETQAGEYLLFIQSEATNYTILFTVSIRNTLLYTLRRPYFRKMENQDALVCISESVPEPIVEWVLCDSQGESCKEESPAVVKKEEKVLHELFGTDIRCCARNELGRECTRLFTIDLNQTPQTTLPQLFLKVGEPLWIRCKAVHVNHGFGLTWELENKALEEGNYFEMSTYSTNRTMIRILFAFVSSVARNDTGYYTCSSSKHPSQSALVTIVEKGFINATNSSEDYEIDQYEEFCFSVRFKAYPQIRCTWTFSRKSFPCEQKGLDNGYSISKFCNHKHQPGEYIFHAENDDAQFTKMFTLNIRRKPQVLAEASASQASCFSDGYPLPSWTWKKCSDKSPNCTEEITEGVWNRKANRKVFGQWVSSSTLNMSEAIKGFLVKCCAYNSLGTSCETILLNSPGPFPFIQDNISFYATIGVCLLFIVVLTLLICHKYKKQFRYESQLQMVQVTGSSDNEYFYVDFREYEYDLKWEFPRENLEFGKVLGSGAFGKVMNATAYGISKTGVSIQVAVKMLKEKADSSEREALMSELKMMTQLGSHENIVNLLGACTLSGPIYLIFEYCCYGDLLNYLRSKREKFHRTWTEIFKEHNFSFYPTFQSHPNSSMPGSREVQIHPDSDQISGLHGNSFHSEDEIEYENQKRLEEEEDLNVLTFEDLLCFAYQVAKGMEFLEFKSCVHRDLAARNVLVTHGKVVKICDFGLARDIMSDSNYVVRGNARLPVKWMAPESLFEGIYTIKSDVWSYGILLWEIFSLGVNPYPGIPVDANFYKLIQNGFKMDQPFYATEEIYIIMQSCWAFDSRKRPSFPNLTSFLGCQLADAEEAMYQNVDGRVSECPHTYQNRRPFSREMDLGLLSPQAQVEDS
Sequence of RAC-alpha serine/threonine-protein kinase (Homo sapiens) (P31749 whole entry): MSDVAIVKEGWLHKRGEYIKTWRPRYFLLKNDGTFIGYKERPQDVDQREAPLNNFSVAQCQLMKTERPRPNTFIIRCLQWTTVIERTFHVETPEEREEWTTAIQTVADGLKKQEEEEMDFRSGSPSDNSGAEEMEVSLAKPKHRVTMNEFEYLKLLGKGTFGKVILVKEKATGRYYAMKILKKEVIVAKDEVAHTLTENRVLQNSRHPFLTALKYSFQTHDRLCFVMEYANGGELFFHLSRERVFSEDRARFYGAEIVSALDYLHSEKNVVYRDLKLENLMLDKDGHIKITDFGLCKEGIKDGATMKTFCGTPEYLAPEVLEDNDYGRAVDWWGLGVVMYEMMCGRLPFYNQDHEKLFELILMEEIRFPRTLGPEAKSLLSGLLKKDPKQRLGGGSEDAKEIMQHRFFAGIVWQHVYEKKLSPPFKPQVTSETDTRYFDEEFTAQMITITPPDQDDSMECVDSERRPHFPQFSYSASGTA
Sequence of Mu-type opioid receptor (Homo sapiens) (P35372 whole entry): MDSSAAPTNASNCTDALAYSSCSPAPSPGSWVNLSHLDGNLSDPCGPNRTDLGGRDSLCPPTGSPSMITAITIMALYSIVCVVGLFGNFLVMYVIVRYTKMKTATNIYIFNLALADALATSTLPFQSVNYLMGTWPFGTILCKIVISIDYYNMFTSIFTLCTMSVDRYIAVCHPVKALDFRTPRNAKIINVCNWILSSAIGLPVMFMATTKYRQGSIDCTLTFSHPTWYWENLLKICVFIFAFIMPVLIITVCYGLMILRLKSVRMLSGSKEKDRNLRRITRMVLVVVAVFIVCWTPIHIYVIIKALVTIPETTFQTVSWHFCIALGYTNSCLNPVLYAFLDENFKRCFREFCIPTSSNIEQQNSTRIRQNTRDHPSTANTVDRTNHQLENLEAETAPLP
Sequence of Serine/threonine-protein kinase Nek2 (Homo sapiens) (P51955 whole entry): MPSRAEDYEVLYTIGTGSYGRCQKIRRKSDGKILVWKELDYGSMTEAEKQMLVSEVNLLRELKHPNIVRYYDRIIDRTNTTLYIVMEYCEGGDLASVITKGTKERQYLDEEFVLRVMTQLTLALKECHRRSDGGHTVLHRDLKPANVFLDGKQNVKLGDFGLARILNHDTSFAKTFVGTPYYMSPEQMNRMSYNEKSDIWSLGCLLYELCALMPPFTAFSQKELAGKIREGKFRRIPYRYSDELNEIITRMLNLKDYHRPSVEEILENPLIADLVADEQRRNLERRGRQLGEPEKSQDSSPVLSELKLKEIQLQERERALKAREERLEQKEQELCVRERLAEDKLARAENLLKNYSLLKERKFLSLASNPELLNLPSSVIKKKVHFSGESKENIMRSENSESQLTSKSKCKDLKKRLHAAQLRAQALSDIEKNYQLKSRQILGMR
Sequence of Alpha-1D adrenergic receptor (Homo sapiens) (P25100 whole entry): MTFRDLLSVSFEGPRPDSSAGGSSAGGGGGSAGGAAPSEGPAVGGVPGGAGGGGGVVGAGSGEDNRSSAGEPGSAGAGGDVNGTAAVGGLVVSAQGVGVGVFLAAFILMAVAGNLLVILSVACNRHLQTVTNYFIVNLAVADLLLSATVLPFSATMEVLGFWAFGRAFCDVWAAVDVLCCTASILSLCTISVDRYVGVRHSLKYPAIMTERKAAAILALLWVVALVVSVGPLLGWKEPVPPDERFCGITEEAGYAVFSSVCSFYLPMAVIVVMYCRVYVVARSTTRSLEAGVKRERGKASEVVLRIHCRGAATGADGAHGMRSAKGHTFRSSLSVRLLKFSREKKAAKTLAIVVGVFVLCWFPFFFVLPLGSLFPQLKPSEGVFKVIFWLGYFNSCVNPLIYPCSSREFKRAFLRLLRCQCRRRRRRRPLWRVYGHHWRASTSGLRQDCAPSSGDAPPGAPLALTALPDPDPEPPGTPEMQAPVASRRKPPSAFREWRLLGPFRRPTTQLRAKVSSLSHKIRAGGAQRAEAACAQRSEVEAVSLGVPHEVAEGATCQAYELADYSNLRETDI
Sequence of Oxysterols receptor LXR-alpha (Q13133 whole entry): as the sequence (Q13133 whole entry) above

inhibition [1]: 6.64%
inhibition [2]: 25.6%
inhibition [3]: 7.18%
inhibition [4]: 10.3%
inhibition [5]: -2.29%
inhibition [6]: 37.3%
IC50 [7]: 5.9 µM
inhibition ([8]; Compound concentration 0.3 uM): 5.39%
inhibition ([8]; Compound concentration 1.0 uM): 8.98%
inhibition ([8]; Compound concentration 3.0 uM): 11%
inhibition [9]: 4%
inhibition [10]: 17%
inhibition ([11]; Compound concentration 1.0 uM): 18%
inhibition ([11]; Compound concentration 10.0 uM): 22%
inhibition [12]: 11%
inhibition [13]: 7%
inhibition [14]: -5%
inhibition [15]: 2%
inhibition [16]: 9.28%
inhibition [17]: 4%
inhibition [18]: 5.4%
inhibition [19]: -3.25%
IC50 [20]: 6.4 µM
inhibition [21]: 31%
inhibition [22]: 21.7%
inhibition [23]: 10%
inhibition [24]: 19.9%
inhibition [25]: 14%
inhibition ([26]; Compound concentration 1.0 uM): 21%
inhibition ([26]; Compound concentration 10.0 uM): 19%
inhibition [27]: 3%
inhibition [28]: 15.2%
SMILES: COc1nc2ccc([C@@](O)(c3ccccc3)C3CCN(C(C)=O)CC3)cc2c(Cl)c1Cc1ccc(-n2cccn2)cc1 [JNJ-54119936]
